Experimental findings from ChEMBL document CHEMBL1134206 (Bioorg Med Chem Lett, 2001) are described below.

Test [1] concerns the target T1, 5-hydroxytryptamine receptor 1A (Rattus norvegicus) (UniProt P19327).
T1 sequence (whole entry): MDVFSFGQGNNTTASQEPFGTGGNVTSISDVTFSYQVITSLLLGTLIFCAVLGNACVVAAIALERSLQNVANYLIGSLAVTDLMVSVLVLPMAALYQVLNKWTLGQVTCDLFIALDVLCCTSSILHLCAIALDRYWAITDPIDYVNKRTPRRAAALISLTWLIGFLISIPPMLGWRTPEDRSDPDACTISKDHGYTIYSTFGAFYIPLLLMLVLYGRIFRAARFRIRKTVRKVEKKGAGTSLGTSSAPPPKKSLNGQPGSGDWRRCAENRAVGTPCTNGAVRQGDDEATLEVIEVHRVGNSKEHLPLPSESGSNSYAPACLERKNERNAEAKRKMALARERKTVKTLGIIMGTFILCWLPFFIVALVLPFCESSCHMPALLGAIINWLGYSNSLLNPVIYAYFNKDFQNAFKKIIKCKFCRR
Kind of test: Ratio of binding affinity to 5-HT 1A and D2 receptor.

Test [2] concerns the target T2, 5-hydroxytryptamine receptor 1A (Rattus norvegicus, UniProt P19327).
T2 sequence (P19327 whole entry): T1 sequence (whole entry)
In words: Binding affinity to 5-hydroxytryptamine 1A receptor of rat hippocampus with [3H]8-OH-DPAT as radioligand. The test is classed as tissue-based.

A further test concerns the target D(2) dopamine receptor (Rattus norvegicus, UniProt P61169). In words: Binding affinity to Dopamine receptor D2 in of rat striatum membrane with [3H]- raclopride as radioligand. It is filed as cell membranes.
The species named for another test is Rattus norvegicus. In words: Neuronal protective effect of compound against ischemic brain damage in rat t-MCAO model. It is filed as functional.

The structures appear in SMILES notation.

D(2) dopamine receptor, sequence (P61169 whole entry): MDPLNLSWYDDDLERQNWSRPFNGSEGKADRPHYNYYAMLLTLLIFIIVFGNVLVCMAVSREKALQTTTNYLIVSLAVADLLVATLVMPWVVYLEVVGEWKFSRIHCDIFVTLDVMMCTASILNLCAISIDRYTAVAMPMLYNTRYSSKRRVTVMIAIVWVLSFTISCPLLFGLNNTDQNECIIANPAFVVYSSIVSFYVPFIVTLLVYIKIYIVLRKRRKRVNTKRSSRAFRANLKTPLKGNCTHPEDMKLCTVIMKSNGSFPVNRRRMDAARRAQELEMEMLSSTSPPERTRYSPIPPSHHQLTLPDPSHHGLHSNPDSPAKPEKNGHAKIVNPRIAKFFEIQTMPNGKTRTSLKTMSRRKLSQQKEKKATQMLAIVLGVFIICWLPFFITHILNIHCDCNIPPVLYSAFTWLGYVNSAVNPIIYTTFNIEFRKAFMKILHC

As for `O=C1c2ccccc2OC=C(Cl)N1CCCCN1CCN(c2ncccn2)CC1`, the Ratio in test [1] is 125. Moreover, the IC50 was found to be 1.59 nM in test [2] and 199 nM at D(2) dopamine receptor.
For `O=C1c2ccccc2OC=C(Cl)N1CCCCN1CCN(c2ccccn2)CC1`, the Ratio in test [1] was 66.
For `CC1=COc2ccccc2C(=O)N1CCCCN1CCN(c2ncccn2)CC1`, in test [1], the Ratio was determined as 108. Further, the results for the IC50 (in test [2]; at D(2) dopamine receptor) were 10.2 nM and 1100 nM, respectively.
Molecule `O=C1c2ccccc2OC=CN1CCCCN1CCN(c2ncccn2)CC1` gave an IC50 in test [2] of 18 nM.
As to `Cc1c(N(C)C)c(=O)n(-c2ccccc2)n1C` [AMINOPYRINE], the Inhibition in the test listed under Rattus norvegicus is on record as 21%.
Regarding `O=C1c2ccccc2OC=C(Cl)N1CCCCN1CC=C(c2ccccn2)CC1` [PICLOZOTAN], the Ratio in test [1] amounted to 179. The Inhibition in the test listed under Rattus norvegicus was 63%. At D(2) dopamine receptor, the IC50 was 84 nM.

A word on the IC50: it is the concentration that gives 50% inhibition. The low end stands for greater potency, the high end for weaker potency. A word on the Inhibition: it is the share of the control response that was lost under treatment. Higher therefore signals strong suppression.
